This test has as its target Sodium channel protein type 9 subunit alpha (Homo sapiens, UniProt Q15858). The experiment in a line: cell-based.
Sequence of Sodium channel protein type 9 subunit alpha (Q15858 whole entry): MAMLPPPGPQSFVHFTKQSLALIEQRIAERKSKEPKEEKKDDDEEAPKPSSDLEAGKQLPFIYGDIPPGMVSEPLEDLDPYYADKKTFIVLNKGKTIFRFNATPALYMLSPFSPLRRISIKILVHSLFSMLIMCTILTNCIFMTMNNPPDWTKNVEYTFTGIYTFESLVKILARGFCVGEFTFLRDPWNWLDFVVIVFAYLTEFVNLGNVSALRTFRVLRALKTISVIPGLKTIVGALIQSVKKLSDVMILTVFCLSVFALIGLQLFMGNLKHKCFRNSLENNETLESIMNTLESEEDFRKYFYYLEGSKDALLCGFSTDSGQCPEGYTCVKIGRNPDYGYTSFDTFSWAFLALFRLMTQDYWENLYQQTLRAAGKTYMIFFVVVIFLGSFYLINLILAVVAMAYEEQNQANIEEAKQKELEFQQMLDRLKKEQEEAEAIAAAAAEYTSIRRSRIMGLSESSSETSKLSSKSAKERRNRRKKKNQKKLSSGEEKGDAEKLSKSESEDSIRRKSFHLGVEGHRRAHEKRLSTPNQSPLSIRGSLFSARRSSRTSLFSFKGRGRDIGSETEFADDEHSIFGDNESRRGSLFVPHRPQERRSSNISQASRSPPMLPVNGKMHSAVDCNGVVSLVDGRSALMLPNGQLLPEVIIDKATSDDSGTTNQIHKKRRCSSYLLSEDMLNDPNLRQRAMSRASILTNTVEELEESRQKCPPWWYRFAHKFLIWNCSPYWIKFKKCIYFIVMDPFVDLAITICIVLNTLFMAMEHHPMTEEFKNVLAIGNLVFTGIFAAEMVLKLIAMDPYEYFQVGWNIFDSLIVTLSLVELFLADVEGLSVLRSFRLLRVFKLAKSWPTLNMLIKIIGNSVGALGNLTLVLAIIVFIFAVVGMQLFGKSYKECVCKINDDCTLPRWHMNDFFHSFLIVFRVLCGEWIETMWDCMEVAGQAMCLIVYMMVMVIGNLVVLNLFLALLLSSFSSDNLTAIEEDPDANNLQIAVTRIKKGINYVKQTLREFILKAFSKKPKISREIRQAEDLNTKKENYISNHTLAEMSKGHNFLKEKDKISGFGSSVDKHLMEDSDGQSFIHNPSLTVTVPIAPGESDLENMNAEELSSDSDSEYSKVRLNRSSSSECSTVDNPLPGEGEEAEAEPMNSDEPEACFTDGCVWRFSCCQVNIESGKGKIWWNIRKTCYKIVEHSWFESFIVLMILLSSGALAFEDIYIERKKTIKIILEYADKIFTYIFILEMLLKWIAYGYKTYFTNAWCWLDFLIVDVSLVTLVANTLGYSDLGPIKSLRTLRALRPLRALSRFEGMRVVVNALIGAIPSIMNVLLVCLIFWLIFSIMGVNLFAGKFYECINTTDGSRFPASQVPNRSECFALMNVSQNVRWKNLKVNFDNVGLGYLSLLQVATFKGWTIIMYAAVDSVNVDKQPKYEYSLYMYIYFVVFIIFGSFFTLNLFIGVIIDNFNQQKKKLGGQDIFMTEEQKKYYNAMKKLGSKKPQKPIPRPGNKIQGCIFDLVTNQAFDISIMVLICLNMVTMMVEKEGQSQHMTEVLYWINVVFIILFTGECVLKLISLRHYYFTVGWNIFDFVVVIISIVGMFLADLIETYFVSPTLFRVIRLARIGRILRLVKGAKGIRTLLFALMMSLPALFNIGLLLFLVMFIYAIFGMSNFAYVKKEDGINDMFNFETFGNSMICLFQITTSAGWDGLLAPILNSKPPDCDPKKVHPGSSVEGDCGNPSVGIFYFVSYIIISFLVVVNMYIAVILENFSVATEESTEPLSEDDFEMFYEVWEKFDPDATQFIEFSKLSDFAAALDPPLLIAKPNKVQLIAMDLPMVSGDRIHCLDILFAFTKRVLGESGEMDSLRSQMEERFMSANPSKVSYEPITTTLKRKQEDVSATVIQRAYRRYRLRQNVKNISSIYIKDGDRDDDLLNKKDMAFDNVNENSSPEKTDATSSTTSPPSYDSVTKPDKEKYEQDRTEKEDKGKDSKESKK
Take `O=S(=O)(Nc1nncs1)c1ccc(Oc2ccc(Cl)cc2-c2ccn[nH]2)c(Cl)c1`: the half-inhibitory concentration (IC50) (as a rule, the point on the concentration scale where inhibition reaches its midpoint) was 0.05 µM. That is a double-digit nanomolar value.
On to `CC(C)(C)OC(=O)n1cc(-c2cc(Cl)ccc2Oc2cc(F)c(S(=O)(=O)Nc3nccs3)cc2F)cn1`, for which the half-inhibitory concentration (IC50) is 0.056 µM. This IC50 and that of the compound before are within 1.5-fold of each other.
Under `CC(C)(C)OC(=O)n1cc(-c2cc(Cl)ccc2Oc2cc(F)c(S(=O)(=O)Nc3ncc(F)s3)cc2F)cn1` stands 0.025 µM; under `Nc1cc(-c2cc(Cl)ccc2Oc2cc(F)c(S(=O)(=O)Nc3cscn3)cc2F)ccn1`, 0.019 µM.
Next, `NC1=NCN=C1c1cc(Cl)ccc1Oc1cc(F)c(S(=O)(=O)Nc2ccncn2)cc1Cl`: 0.021 µM; `CCN1CC(n2nccc2-c2cc(C(F)(F)F)ccc2Oc2ccc(S(=O)(=O)Nc3cscn3)cc2C#N)C1`: 0.022 µM; `N#Cc1cc(S(=O)(=O)Nc2ncns2)ccc1Oc1ccc(Cl)cc1-c1ccnn1C1CCC1`: 0.012 µM.
Under `N#Cc1cc(S(=O)(=O)Nc2ccc(F)cn2)ccc1Oc1ccc(CN2CCC2)c(F)c1` stands 30 µM; under `Cc1nc(-c2ccccc2Oc2ccc(S(=O)(=O)Nc3ccc(F)cn3)cc2C#N)cs1`, 30 µM.
Regarding `COc1cc(Oc2ccc(S(=O)(=O)Nc3ccc(F)cn3)cc2C#N)ccc1-n1cnc(C)c1`, the half-maximal inhibitory concentration (IC50) is 30 µM.
Under `N#Cc1cc(S(=O)(=O)Nc2ncns2)ccc1Oc1ccc(Cl)cc1-c1ccnn1C1CC1` stands 0.017 µM.
Next, `N#Cc1cc(S(=O)(=O)Nc2ncns2)ccc1Oc1ccc(C(F)(F)F)cc1C1CCOCC1`: 0.0088 µM; `N#Cc1ccc(Oc2cc(F)c(S(=O)(=O)Nc3ncns3)cc2Cl)c(-c2ccn[nH]2)c1`: 0.0094 µM.
Under `N#Cc1cc(S(=O)(=O)Nc2ncc(Cl)s2)ccc1Oc1ccc(F)cc1-c1cccc(N)n1` stands 0.01 µM; under `O=S(=O)(Nc1ncc(Cl)s1)c1cc(Cl)c(Oc2ccc(Cl)cc2C2CNC2)cc1F`, 0.01 µM; under `CCn1nc(C(F)(F)F)cc1-c1ccc(Oc2ccc(S(=O)(=O)Nc3ncccc3F)cc2C#N)cc1`, 14 µM.
As for `N#Cc1ccc(NS(=O)(=O)c2ccc(Oc3ccccc3-c3ccccc3)c(C#N)c2)nc1`, half-maximal inhibition (IC50) required 25 µM.
Next, `Cn1nccc1-c1cc(Cl)ccc1Oc1ccc(S(=O)(=O)Nc2cncnc2)cc1C#N`: 30 µM; `O=S(=O)(Nc1nccs1)c1ccc(Oc2ccc(Oc3ccccc3)cc2)c(F)c1`: 10 µM.
Under `Cc1cc(Oc2ccc(S(=O)(=O)Nc3ncc(Cl)s3)cc2C#N)n(C2CCCCC2)n1` stands 10 µM; under `N#Cc1cc(S(=O)(=O)Nc2nccs2)ccc1Oc1ccccc1-c1ccno1`, 10 µM; under `N#Cc1cc(S(=O)(=O)Nc2nccs2)ccc1Oc1ccccc1-c1nncn1-c1ccccc1`, 10 µM.
On to `N#Cc1cc(S(=O)(=O)Nc2nccs2)ccc1Oc1cc(C2CC2)nn1-c1ccccn1`, for which inhibition was half-maximal at 10 µM (IC50).
Under `O=S(=O)(Nc1cscn1)c1ccc(Oc2cc(C(F)(F)F)nn2-c2ccccc2)c(F)c1` stands 10 µM; under `CCn1nc(C(F)(F)F)cc1-c1ccc(Oc2ccc(S(=O)(=O)Nc3ccc(C#N)cn3)cc2C#N)cc1`, 10 µM.
As for `Cc1cncnc1NS(=O)(=O)c1ccc(Oc2ccccc2-c2ccccc2)c(C#N)c1`, inhibition was half-maximal at 10 µM (IC50).
Under `Cc1cnc(NS(=O)(=O)c2ccc(Oc3ccccc3-c3ccccc3)c(C#N)c2)nc1` stands 10 µM; under `N#Cc1cnc(NS(=O)(=O)c2ccc(Oc3ccccc3-c3ccccc3)c(C#N)c2)nc1`, 10 µM.
Next, `CC(C)(C)n1ccc(-c2c(F)cccc2Oc2ccc(S(=O)(=O)Nc3ncns3)cc2C#N)n1`: 10 µM.
Next, `N#Cc1cnc(NS(=O)(=O)c2ccc(Oc3ccccc3-c3ccccc3)c(C#N)c2)s1`: 12.2 µM; `N#Cc1cc(S(=O)(=O)Nc2ncns2)ccc1Oc1ccc(C(F)(F)F)cc1-c1cccnc1`: 0.012 µM; `N#Cc1cc(S(=O)(=O)Nc2ncns2)ccc1Oc1cccc(Br)c1-c1cn[nH]c1`: 0.007 µM.
Consider `O=S(=O)(Nc1ncns1)c1cc(F)c(Oc2ccc(Cl)cc2C2CCNCC2)cc1F`, for which 0.0084 µM corresponded to half-maximal inhibition (IC50).
Under `O=S(=O)(Nc1cscn1)c1cc(F)c(Oc2ccc(Cl)cc2-c2ccnc(N3CCNCC3)c2)cc1F` stands 0.0037 µM; under `CNc1ncc(Oc2ccc(S(=O)(=O)Nc3ncns3)cc2C#N)c(-c2ccc(F)cc2)n1`, 12.5 µM; under `Cc1cnc(NS(=O)(=O)c2ccc(Oc3ccc(Cl)cc3-c3ccnn3C)c(C#N)c2)cn1`, 10 µM.
`Cn1nccc1NS(=O)(=O)c1ccc(Oc2ccc(Cl)cc2-c2ccnn2C)c(C#N)c1` had a concentration for half-maximal inhibition (IC50) of 10 µM. This counts as double-digit micromolar.
Compound `Cc1nonc1NS(=O)(=O)c1ccc(Oc2ccc(Cl)cc2-c2ccnn2C)c(C#N)c1` showed a 50% inhibitory concentration (IC50) of 10 µM.
Next, `COc1nccnc1NS(=O)(=O)c1ccc(Oc2ccc(Cl)cc2-c2ccnn2C)c(C#N)c1`: 10 µM; `Cn1nccc1-c1cc(Cl)ccc1Oc1ccc(S(=O)(=O)Nc2cc[nH]n2)cc1C#N`: 10 µM.
On to `Cn1nccc1-c1cc(Cl)ccc1Oc1ccc(S(=O)(=O)Nc2cccnc2)cc1C#N`, for which it took 10 µM to reach half-maximal inhibition (IC50).
As for `N#Cc1cc(S(=O)(=O)Nc2cnoc2)ccc1Oc1ccccc1-c1ccccc1`, half-maximal inhibition (IC50) was put at 10 µM.
In turn, `N#Cc1cc(S(=O)(=O)Nc2nccs2)ccc1Oc1ccc(-c2cnn(CC(F)(F)F)c2N)cc1` gave an IC50 of 10 µM.
Under `CCc1nsc(NS(=O)(=O)c2ccc(Oc3ccccc3-c3ccccc3)c(C#N)c2)n1` stands 10 µM; under `N#Cc1cc(S(=O)(=O)Nc2ncns2)ccc1Oc1cnc(N)nc1-c1ccc(Cl)cc1`, 10 µM; under `N#Cc1cc(S(=O)(=O)Nc2ncns2)ccc1Oc1nccnc1-c1ccccc1`, 10 µM.
Next, `N#Cc1cc(S(=O)(=O)Nc2ncns2)ccc1Oc1nnccc1-c1ccccc1`: 10 µM.
In the case of `N#Cc1cc(S(=O)(=O)Nc2ncns2)ccc1Oc1ccccc1Oc1ccccc1C(N)=O`, 10 µM corresponded to half-maximal inhibition (IC50).
As to `N#Cc1cc(S(=O)(=O)Nc2ncco2)ccc1Oc1ccccc1-c1ccccc1`, half-maximal inhibition (IC50) required 10 µM. This lies in the double-digit micromolar range.
`CC(C)c1nsc(NS(=O)(=O)c2ccc(Oc3ccccc3-c3ccccc3)c(C#N)c2)n1`: the IC50 was 10 µM.
Under `N#Cc1cc(S(=O)(=O)Nc2ccccc2)ccc1Oc1ccccc1-c1ccccc1` stands 10 µM; under `N#Cc1cc(S(=O)(=O)Nc2cc(C(F)(F)F)ncn2)ccc1Oc1ccccc1-c1ccccc1`, 10 µM.
`N#Cc1cc(S(=O)(=O)Nc2ncsn2)ccc1Oc1ccccc1-c1ccccc1` gave a half-maximal inhibitory concentration (IC50) of 4.6 µM.
Compound `N#Cc1cc(S(=O)(=O)Nc2cnsn2)ccc1Oc1ccccc1-c1ccccc1` showed a 50% inhibitory concentration (IC50) of 5.68 µM.
Under `Cc1ccc(Oc2ccc(S(=O)(=O)Nc3nccs3)cc2F)c(-c2ccn(C)n2)c1` stands 6.44 µM; under `NCc1cc(-c2cc(Cl)ccc2Oc2cc(F)c(S(=O)(=O)Nc3ncns3)cc2Cl)ccn1`, 0.0049 µM; under `Nc1cc(-c2cc(OC(F)(F)F)ccc2Oc2cc(F)c(S(=O)(=O)Nc3ncns3)cc2F)ccn1`, 0.0024 µM.
Under `N#Cc1cc(S(=O)(=O)Nc2nccs2)ccc1Oc1ccc(-c2ccc(C(F)(F)F)cn2)cc1` stands 3.3 µM.
